The source of these data is ChEMBL document CHEMBL1130072, “Probing the active sites of monoamine oxidase A and B with 1,4-disubstituted tetrahydropyridine substrates and inactivators” (J Med Chem, 1997).

In series [1] the target is T1, Amine oxidase [flavin-containing] A (Homo sapiens, UniProt P21397).
T1 sequence (P21397 whole entry): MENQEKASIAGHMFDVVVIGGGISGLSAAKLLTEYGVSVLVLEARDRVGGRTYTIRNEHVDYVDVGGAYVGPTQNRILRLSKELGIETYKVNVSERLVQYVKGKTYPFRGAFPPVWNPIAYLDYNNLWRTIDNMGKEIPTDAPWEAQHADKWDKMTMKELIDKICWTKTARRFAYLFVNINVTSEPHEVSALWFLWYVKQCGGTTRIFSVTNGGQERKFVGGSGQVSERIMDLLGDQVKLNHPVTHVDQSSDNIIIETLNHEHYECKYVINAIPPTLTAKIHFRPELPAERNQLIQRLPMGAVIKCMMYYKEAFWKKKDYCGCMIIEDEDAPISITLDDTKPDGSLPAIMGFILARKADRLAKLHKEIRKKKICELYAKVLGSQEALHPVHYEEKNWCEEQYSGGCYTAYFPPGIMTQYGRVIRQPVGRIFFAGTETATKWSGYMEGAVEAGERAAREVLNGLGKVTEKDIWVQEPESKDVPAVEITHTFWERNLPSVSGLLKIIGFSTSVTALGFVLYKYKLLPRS
Kind of series: Vmax/Km values for MAO-A. Also noted: unit not given here.

For series [2], the target named is T2, Amine oxidase [flavin-containing] B (Bos taurus, UniProt P56560).
T2 sequence (P56560 whole entry): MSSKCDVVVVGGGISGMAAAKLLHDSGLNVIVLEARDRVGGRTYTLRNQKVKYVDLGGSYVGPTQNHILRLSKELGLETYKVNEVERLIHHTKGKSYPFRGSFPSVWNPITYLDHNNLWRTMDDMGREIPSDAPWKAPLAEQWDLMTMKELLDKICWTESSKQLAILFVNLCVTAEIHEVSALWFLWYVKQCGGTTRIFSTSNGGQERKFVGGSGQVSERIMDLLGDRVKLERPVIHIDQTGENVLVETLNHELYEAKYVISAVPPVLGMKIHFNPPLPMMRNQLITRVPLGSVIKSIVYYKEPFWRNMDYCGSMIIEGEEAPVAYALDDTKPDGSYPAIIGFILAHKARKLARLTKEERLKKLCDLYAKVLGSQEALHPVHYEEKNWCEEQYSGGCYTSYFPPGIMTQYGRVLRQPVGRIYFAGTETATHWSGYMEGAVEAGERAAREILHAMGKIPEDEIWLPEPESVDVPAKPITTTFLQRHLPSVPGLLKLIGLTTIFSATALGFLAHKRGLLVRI
Briefly: Tested for maximum velocity of monoamine oxidase B catalyzed oxidation. Also noted: unit not given here.

In series [3] the target is T3, Amine oxidase [flavin-containing] B (Homo sapiens, UniProt P27338).
T3 sequence (P27338 whole entry): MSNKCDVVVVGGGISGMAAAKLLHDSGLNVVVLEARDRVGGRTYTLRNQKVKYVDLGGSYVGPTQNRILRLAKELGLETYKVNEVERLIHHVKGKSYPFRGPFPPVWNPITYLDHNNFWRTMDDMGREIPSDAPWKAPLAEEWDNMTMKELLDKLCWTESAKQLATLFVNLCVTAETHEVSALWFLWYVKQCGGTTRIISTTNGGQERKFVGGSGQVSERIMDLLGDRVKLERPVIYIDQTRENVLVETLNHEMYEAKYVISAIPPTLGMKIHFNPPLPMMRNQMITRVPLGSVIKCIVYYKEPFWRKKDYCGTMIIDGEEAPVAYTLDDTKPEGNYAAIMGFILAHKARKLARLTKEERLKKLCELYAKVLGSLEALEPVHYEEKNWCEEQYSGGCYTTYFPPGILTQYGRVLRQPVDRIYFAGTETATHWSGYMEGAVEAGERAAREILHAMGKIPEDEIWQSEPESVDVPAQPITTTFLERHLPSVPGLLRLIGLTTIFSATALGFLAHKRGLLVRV
Kind of series: Vmax/Km values for MAO-B. Also noted: unit not given here.

Series [4] has as its target T1, Amine oxidase [flavin-containing] A. Briefly: Tested for maximum velocity of monoamine oxidase A catalyzed oxidation. Also noted: unit not given here.
The target of a further series is T4, Monoamine oxidase (Homo sapiens, UniProt P21397+P27338).
T4 sequence (P21397 whole entry): T1 sequence (P21397 whole entry)
T4 sequence (P27338 whole entry): T3 sequence (P27338 whole entry)
Kind of series: Selectivity Coefficient measured as ratio of Vmax/Km value of MAO-B to that of MAO-A. Type of series: protein assay.

Series [5] deals with T1, Amine oxidase [flavin-containing] A. Briefly: Tested for Kinetic data against the monoamine oxidase A catalyzed oxidation.
The target of series [6] is T2, Amine oxidase [flavin-containing] B. Briefly: Tested for Kinetic data against the monoamine oxidase B catalyzed oxidation.
Series [7] deals with T1, Amine oxidase [flavin-containing] A. Briefly: Tested for Kinetic data against the monoamine oxidase A catalyzed oxidation;NSD = No substrate properties detected.
Series [8] has the same target. Briefly: Tested for inhibition- binding affinity against monoamine oxidase A catalyzed oxidation; NID = no inactivation properties detected.
The target is the same in series [9]. Kind of series: Tested for Km, the substrate concentration with gives half maximum velocity of the monoamine oxidase A catalyzed oxidation; NSD = no substrate properties detected.
Series [10] deals with T2, Amine oxidase [flavin-containing] B. Kind of series: Tested for Km, the substrate concentration with gives half maximum velocity of the monoamine oxidase B catalyzed oxidation; NSD = no substrate properties detected.
Series [11] has the same target. Kind of series: Tested for inhibition- binding affinity against monoamine oxidase B catalyzed oxidation; NID = no inactivation properties detected.

With `CN1CC=C(c2ccc3ccccc3c2)CC1`, the Ratio in series [1] is 443; in series [3] it was 71. In addition, the Vmax in [2] turned out to be 42; in series [4], 204.
Regarding `CN1CC=C(c2ccccc2)CC1`, the values for the Ratio in series [1] and in series [3] were 143 and 523, respectively. Moreover, the Vmax was determined as 204 in series [2] and 20 in series [4]. Besides, the Selectivity coefficient at Monoamine oxidase is 3.65.
On to `CN1CC=C(c2cccc3ccccc23)CC1`, for which the results for the Ratio in series [1] and in series [3] were 862 and 364, respectively. For the same molecule, the Vmax in series [2] stood at 51; in [4], 526.
Turning to `CCc1ccccc1C1=CCN(C)CC1`, the “Vmax / Km” value in series [5] came to 11500 M⁻¹ s⁻¹; in series [6] it was 4920 M⁻¹ s⁻¹. For the same molecule, the Selectivity coefficient on Monoamine oxidase was determined as 0.43.
Take `CC(C)c1ccccc1C1=CCN(C)CC1`: the “Vmax / Km” value came out at 18700 M⁻¹ s⁻¹ in series [5] and 850 M⁻¹ s⁻¹ in [6]. Also, the Selectivity coefficient on Monoamine oxidase worked out at 0.05.
For the molecule `CN1CC=C(c2c[nH]c3ccccc23)CC1.O=C(O)C(=O)O`, the Vmax in series [2] was 358. The “Vmax / Km” value in series [6] was determined as 6620 M⁻¹ s⁻¹.
As to `COc1cccc(C2=CCN(C)CC2)c1`, the “Vmax / Km” value in series [6] was 15600 M⁻¹ s⁻¹; in series [7] it was “No substrate detected”.
`CN1CC=C(c2cccc(Oc3ccccc3)c2)CC1`: in [5], the “Vmax / Km” value was 92800 M⁻¹ s⁻¹.
As to `C1=C(c2ccc(-c3ccccc3)cc2)CCN(C2CC2)C1`, the Ki entry in [8] is listed as “No inhibition”.
On to `CN1CC=C(c2cccc(-c3ccccc3)c2)CC1`, for which the Vmax in series [2] came to 153. Moreover, the Ratio in series [3] is recorded as 157. Also, the Km result in [9] is on record as “No substrate detected”.
For the molecule `CN1CC=C(c2ccc(-c3ccccc3)cc2)CC1`, the Km result in [10] and in series [9] was “No substrate detected” in each case.
As to `Cc1ccccc1C1=CCN(C)CC1`, the “Vmax / Km” value in series [5] was found to be 9800 M⁻¹ s⁻¹; in series [6], 21470 M⁻¹ s⁻¹. Further, the Selectivity coefficient on Monoamine oxidase came out at 2.19.
On to `C1=C(c2ccccc2-c2ccccc2)CCN(C2CC2)C1`, for which the Ki entry in series [11] was “No inhibition”.
With `Cc1cccc(C2=CCN(C)CC2)c1`, the “Vmax / Km” value in series [5] was found to be 1270 M⁻¹ s⁻¹; in series [6], 10800 M⁻¹ s⁻¹. Further, on Monoamine oxidase, the Selectivity coefficient turned out to be 8.5.
On to `CN1CC=C(c2ccccc2-c2ccccc2)CC1`, for which the values for the Ratio in series [1] and in [3] were 892 and 12, respectively. For the same molecule, the Vmax turned out to be 20 in series [2] and 107 in series [4].
